{"source": "paper PMC5225172", "about": "(Cancer Chemotherapy and Pharmacology, 2016)", "key": {"[1]": {"test_system": "advanced solid tumors and non-Hodgkin's lymphoma", "set-up": "method as in PMID 27672108", "details": "cited from earlier work"}, "clinical": {"test": "clinical", "details": "human, in vivo", "description": "Additional PK samples were collected at either 72, 96, or 120 h following the start of infusion. […] Blood pressure monitoring was performed every 5 min before dosing on cycle 1, day 1 until the observation of two consecutive measurements <150 mmHg (systolic) and <90 mmHg (diastolic). […] Serum samples for glucose analysis were collected immediately before the first infusion and in parallel with PK sampling through to 49 h post-dose. Glucose samples taken at 25 h post-dose were to be fasting, where possible and if deemed safe. Capillary blood glucose testing was to be performed for hyperglycemia management as determined appropriate by the investigator; hyperglycemia was defined as capillary blood glucose >200 mg/dL and was to be treated with short-acting insulin. Tumor measurement and disease assessment according to RECIST version 1.1 were conducted every two cycles by the investigator. This study was primarily a descriptive safety and tolerability trial, and no formal sample-size estimation was performed. Summary statistics were used for demographics, baseline characteristics, and PK parameters. Frequency tables were used for categorical variables."}}}
{"smiles": "COc1c(OCCCN2CCOCC2)ccc2c1N=C(NC(=O)c1cnc(N)nc1)N1CCN=C21", "note": "[copanlisib, Copanlisib]", "values": [{"measurement": "Objective response rate", "setting": "[1]; 25 patients in solid-tumor expansion cohort treated at the MTD", "value": 12, "unit": "%"}, {"measurement": "Disease control rate", "setting": "[1]; advanced solid-tumor expansion cohort", "value": 44, "unit": "%"}, {"measurement": "Antitumor activity in patients with non-Hodgkin's lymphoma", "setting": "[1]; first-in-human study", "value": "seven out of nine patients"}, {"measurement": "half-life", "setting": "clinical; 0.4 mg/kg, Geometric mean terminal half-life", "value": "~32", "unit": "h"}, {"measurement": "half-life", "setting": "clinical; 0.8 mg/kg, Geometric mean terminal half-life", "value": "~36", "unit": "h"}, {"measurement": "half-life", "setting": "clinical; 0.8 mg/kg, Plasma half-life", "value": "32 to 36", "unit": "h"}, {"measurement": "AUC", "setting": "clinical; iv, 0.4 mg/kg", "value": 1400, "unit": "ng·h/mL"}, {"measurement": "AUC(0-t)", "setting": "clinical; iv, 0.4 mg/kg, AUC(0–8)", "value": 483, "unit": "ng·h/mL"}, {"measurement": "AUC(0-t)", "setting": "clinical; iv, 0.4 mg/kg, AUC(0–25)", "value": 789, "unit": "ng·h/mL"}, {"measurement": "Cmax", "setting": "clinical; iv, 0.4 mg/kg, C max", "value": 215, "unit": "ng/mL"}, {"measurement": "half-life", "setting": "clinical; iv, 0.4 mg/kg, t 1/2 (half-life associated with terminal slope)", "value": 32.2, "unit": "h"}, {"measurement": "Tmax", "setting": "clinical; iv, 0.4 mg/kg, tmax", "value": 1.02, "unit": "h"}, {"measurement": "AUC", "setting": "clinical; iv, 0.8 mg/kg", "value": 2350, "unit": "ng·h/mL"}, {"measurement": "AUC(0–25)", "setting": "clinical; iv, 0.8 mg/kg", "value": "1290 (10.1) µg·h/L"}, {"measurement": "Tmax", "setting": "clinical; iv, 0.8 mg/kg", "value": "0.75 [0.48-1.05] h"}, {"measurement": "AUC(0-t)", "setting": "clinical; iv, 0.8 mg/kg, AUC(0–8)", "value": 812, "unit": "ng·h/mL"}, {"measurement": "AUC(0-t)", "setting": "clinical; iv, 0.8 mg/kg, AUC(0–25)", "value": 1280, "unit": "ng·h/mL"}, {"measurement": "half-life", "setting": "clinical; iv, 0.8 mg/kg, t1/2 (half-life associated with terminal slope)", "value": 35.6, "unit": "h"}, {"measurement": "Tmax", "setting": "clinical; iv, 0.8 mg/kg, tmax", "value": 0.53, "unit": "h"}]}
